≈ marks a conversion by molar mass, not a printed value.
Tests used:
Format in all cases: cell-based
[1] = tested on: human leukemic cells (CCRF-CEM cell line); assay: Cytotoxicity screen: growth inhibition of human leukemic cells; conditions: read-out: IC₅₀ (concentration giving 50% growth inhibition)
Source text: See, e.g., Miller et al., in J. Med. Chem. Vol. 20, No. 3 409 (1977) and Sweeney, et al., in Cancer Research 38, 2886 (1978).
The compounds of the present invention represented by Formula I are cytostatic in that they inhibit the growth of human leukemic cells (CCRF-CEM cell line). Table 1 below gives the results of such testing of compounds representative of those in Formula I. In the Table, column 1 gives the example number of the compound and column 2 the IC₅₀ (concentration giving 50% growth inhibition) in mcg/ml.

[2] = tested on: Friends leukemia virus; assay: CPE inhibition in SC-1 cells infected with murine leukemia virus, XC cell overlay; conditions: SC1, 120 h, SC-1 cells from a feral mouse, XC cells added after 5 days, read-out: IC₅₀
Protocol: The following procedure was used to establish the efficacy of a representative compound of the present invention against Friends leukemia virus. SC-1 cells from a feral mouse were seeded subconfluently at 2-5 x 10³ cells per well in 96 microwell plates with complete MEM media plus 2 mcg/ml polybrene overnight at 37°C under a carbon dioxide atmosphere. The medium was removed. The cultures were infected with a proper dilution of murine leukemia virus (50 mcl/well) and were allowed to adsorb for about two hours at room temperature. After adsorption, the virus containing medium was removed and replaced with fresh complete MEM, both with and without dilutions of the compound of Example 1, and reincubated at 37°C under carbon dioxide for 5 days or until the cells reached confluence. The medium was removed and the cells were exposed for 10 seconds to a UV germicidal light. XC cells from a Rous sarcoma virus induced rat tumor cell line at a concentration of 5-8 x 10⁴ cells/well were added to the irradiated SC-1 monolayers. The cultures were incubated at 37°C under carbon dioxide for three days until CPE occurred in the control wells. Cultures were fixed with formalin and stained with crystal violet. The results were scored as CPE inhibition.

[3] = tested on: HSV-1; assay: Plaque-reduction study against HSV-1; conditions: HSV-1 plaque reduction
Protocol: (§1) The following plaque-reduction study provides a quantitative evaluation of inhibitors of virus multiplication and establishes the antiviral activity of a representative compound of the present invention. According to this study, susceptible cells (BSC-1, Hela, MDCK, etc.) were grown in 25 cm² Falcon flasks at 37°C in Medium 199 with 5 percent inactivated fetal bovine serum (FBS), penicillin (150 units/ml) and streptomycin (150 »g/ml). When confluent monolayers were formed, the growth medium was removed and 0.3 ml of an appropriate dilution of the virus was added to each flask. After adsorption for one hour at room temperature, the infected cell sheet was overlaid with equal parts of 1 percent Agarose and 2x Medium 199, 2.5 percent FBS, penicillin, and streptomycin. The compound to be tested was dissolved in dimethyl sulfoxide (DMSO) at a concentration of 10,000 »g/ml and an aliquot of the resulting solution was diluted to the desired concentration with the agar medium mixture. Flasks were incubated at 37°C until control flasks indicated optimum plaque size of about 2 to about 10 mm. A solution containing 10 percent formalin by volume and 2 percent sodium acetate by volume was added to each flask to inactivate the virus and fix the cell sheet to the plastic surface. The plaques were counted after staining the surrounding cell areas with crystal violet. Results from duplicate flasks at each concentration were averaged and compared with control flasks. The following degrees of inhibition against HSV-1 were observed.

[4] = tested on: HSV-2; assay: Plaque-reduction study against HSV-2; conditions: HSV-2 plaque reduction
Protocol: as §1, with “Results from duplicate flasks at each concentration were averaged and compared with control flasks. The following degrees of inhibition against HSV-1 were observed.” left out

Compound | IC50 [1] | Inhibition ([3]; concentration 25 (unit ug/ml)) | also measured
Nc1ccn([C@@H]2O[C@H](CO)CC2(F)F)c(=O)n1 [Example 1, β-1-(4-Amino-2-oxo-1H-pyrimidin-1-yl)-2,3-dideoxy-2,2-difluororibose] | 1.9 µg/mL (≈ 7.69 µM) |  | IC50 [2]: 6.5 µg/mL (≈ 26.3 µM); inhibition at 15 µg/mL ([3]; Human alphaherpesvirus 1, concentration 15 ug/ml): 50%
Nc1nc(N)c2ncn([C@@H]3O[C@H](CO)CC3(F)F)c2n1 [Example 2, β-1-(2,6-diamino-9H-purin-9-yl)-2,3-dideoxy-2,2-difluororibose] | 1.9 µg/mL (≈ 6.64 µM) |  | Inhibition ([3]; concentration 3.1 (unit ug/ml)): 27%
Nc1nc2c(ncn2[C@@H]2O[C@H](CO)CC2(F)F)c(=O)[nH]1 [Example 3, β-1-(2-amino-6-oxo-9H-purin-9-yl)-2,3-dideoxy-2,2-difluororibose] | 8.5 µg/mL (≈ 29.6 µM) |  | inhibition at 25 µg/mL ([4]; Human alphaherpesvirus 2, concentration 25 ug/ml): 21%
Cc1cn([C@@H]2O[C@H](CO)[C@@H](N=[N+]=[N-])C2(F)F)c(=O)[nH]c1=O [Example 4, β-1-(5-methyl-2,4-dioxo-1H,3H-pyrimidin-1-yl)-3-azido-2,3-dideoxy-2,2-difluororibose] | 23.4 µg/mL (≈ 77.2 µM) | 39% | Inhibition ([4]; concentration 13.5 (unit ug/ml)): 50%
Cc1cn([C@@H]2O[C@H](CO)CC2(F)F)c(=O)[nH]c1=O [Example 5, β-1-(5-methyl-2,4-dioxo-1H,3H-pyrimidin-1-yl)-2,3-dideoxy-2,2-difluororibose] | > 20 µg/mL | 35% | 

— patent publication EP0329348B1, “2',3'-Dideoxy-2',2'-difluoronucleosides” (ELI LILLY AND COMPANY, priority 1988, dated 1989)
